Laboratory results: ChEMBL document CHEMBL1143467, “Synthesis of potent and selective serotonin 5-HT1B receptor ligands” (Bioorg Med Chem Lett, 2005)

Columns and labels:
[1] = target: Muscarinic acetylcholine receptor M3 (Homo sapiens, UniProt P20309); assay: Affinity towards cloned Muscarinic acetylcholine receptor M3
[2] = target: T1, Muscarinic acetylcholine receptor M5 (Homo sapiens, UniProt P08912); assay: Affinity towards cloned Muscarinic acetylcholine receptor M5
T1 sequence (P08912 whole entry): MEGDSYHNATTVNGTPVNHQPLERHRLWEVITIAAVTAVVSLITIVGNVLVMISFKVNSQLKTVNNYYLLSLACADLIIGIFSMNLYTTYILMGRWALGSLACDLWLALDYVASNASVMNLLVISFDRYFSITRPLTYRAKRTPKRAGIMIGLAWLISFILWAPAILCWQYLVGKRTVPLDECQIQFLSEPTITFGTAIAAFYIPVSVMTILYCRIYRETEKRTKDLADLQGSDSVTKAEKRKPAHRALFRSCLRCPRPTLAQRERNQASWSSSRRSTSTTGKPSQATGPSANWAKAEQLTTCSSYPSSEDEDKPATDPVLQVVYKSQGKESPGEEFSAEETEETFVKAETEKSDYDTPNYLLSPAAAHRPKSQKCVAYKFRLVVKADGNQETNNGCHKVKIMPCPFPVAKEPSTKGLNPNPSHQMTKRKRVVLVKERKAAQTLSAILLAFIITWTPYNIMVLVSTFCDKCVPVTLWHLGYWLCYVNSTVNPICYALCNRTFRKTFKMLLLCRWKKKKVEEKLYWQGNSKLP

[3] = target: Mu-type opioid receptor (Homo sapiens, UniProt P35372); assay: Affinity towards cloned Opioid receptor mu 1
[4] = target: 5-hydroxytryptamine receptor 6 (Homo sapiens, UniProt P50406); assay: In vitro binding affinity towards cloned human 5-HT6 receptor using [3H]5-carboximidotryptamine as radioligand
[5] = target: T2, Muscarinic acetylcholine receptor M4 (Homo sapiens, UniProt P08173); assay: Affinity towards cloned Muscarinic acetylcholine receptor M4
T2 sequence (P08173 whole entry): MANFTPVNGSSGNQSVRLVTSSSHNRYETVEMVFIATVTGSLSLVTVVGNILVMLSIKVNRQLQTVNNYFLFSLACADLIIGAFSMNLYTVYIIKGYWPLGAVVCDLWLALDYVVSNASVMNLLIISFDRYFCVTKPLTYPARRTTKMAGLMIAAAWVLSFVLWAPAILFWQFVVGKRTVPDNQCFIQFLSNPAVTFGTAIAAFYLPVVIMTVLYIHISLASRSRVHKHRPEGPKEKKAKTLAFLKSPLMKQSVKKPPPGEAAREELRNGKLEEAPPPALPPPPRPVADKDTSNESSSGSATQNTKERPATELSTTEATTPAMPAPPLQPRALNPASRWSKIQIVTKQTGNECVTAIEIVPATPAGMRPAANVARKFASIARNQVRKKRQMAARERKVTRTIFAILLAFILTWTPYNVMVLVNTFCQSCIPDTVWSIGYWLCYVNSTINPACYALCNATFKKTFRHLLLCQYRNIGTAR

[6] = target: T3, Muscarinic acetylcholine receptor M1 (Homo sapiens, UniProt P11229); assay: Affinity towards cloned Muscarinic acetylcholine receptor M1
T3 sequence (P11229 whole entry): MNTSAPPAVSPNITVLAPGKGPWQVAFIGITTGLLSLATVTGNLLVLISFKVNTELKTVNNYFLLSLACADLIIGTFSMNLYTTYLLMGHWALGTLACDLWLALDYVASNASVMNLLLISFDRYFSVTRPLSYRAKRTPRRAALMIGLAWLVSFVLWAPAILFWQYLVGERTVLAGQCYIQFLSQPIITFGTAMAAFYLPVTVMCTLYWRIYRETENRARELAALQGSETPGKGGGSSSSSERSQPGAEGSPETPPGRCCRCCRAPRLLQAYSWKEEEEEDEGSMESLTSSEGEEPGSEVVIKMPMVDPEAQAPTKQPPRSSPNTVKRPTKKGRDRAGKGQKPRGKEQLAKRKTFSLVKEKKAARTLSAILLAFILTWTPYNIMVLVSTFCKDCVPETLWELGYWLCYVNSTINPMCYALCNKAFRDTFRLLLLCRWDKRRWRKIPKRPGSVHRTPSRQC

[7] = target: 5-hydroxytryptamine receptor 2A (Homo sapiens, UniProt P28223); assay: In vitro binding affinity towards cloned human 5-HT2A receptor using [3H]5-carboximidotryptamine as radioligand
[8] = target: 5-hydroxytryptamine receptor 1B (Homo sapiens, UniProt P28222); assay: In vitro binding affinity towards cloned human 5-HT1B receptor using [3H]5-carboximidotryptamine as radioligand
[9] = Affinity towards cloned Nicotinic acetylcholine receptor
[10] = target: D(2) dopamine receptor (Homo sapiens, UniProt P14416); assay: Affinity towards cloned Dopamine receptor D2
[11] = target: Kappa-type opioid receptor (Homo sapiens, UniProt P41145); assay: Affinity towards cloned Opioid receptor kappa 1
[12] = target: D(1B) dopamine receptor (Homo sapiens, UniProt P21918); assay: Affinity towards cloned Dopamine receptor D5
[13] = target: T4, 5-hydroxytryptamine receptor 2C (Homo sapiens, UniProt P28335); assay: In vitro binding affinity towards cloned human 5-HT2C receptor using [3H]5-carboximidotryptamine as radioligand
T4 sequence (P28335 whole entry): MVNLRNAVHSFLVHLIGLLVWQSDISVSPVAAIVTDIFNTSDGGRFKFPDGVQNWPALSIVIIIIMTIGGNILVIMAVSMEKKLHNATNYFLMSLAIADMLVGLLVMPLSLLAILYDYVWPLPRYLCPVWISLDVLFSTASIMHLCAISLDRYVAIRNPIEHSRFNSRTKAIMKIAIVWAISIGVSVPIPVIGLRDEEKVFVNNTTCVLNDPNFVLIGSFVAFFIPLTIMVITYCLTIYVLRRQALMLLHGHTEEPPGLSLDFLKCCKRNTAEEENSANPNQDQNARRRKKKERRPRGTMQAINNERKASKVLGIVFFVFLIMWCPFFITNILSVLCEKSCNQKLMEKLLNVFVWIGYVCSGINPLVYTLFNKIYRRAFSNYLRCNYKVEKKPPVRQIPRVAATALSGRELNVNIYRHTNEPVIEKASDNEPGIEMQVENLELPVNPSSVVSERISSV

[14] = target: D(1A) dopamine receptor (Homo sapiens, UniProt P21728); assay: Affinity towards cloned Dopamine receptor D1
[15] = target: 5-hydroxytryptamine receptor 7 (Homo sapiens, UniProt P34969); assay: In vitro binding affinity towards cloned human 5-HT7 receptor using [3H]5-carboximidotryptamine as radioligand
[16] = target: 5-hydroxytryptamine receptor 1D (Homo sapiens, UniProt P28221); assay: In vitro binding affinity towards cloned human 5-HT1D receptor using [3H]5-carboximidotryptamine as radioligand
[17] = target: Histamine H1 receptor (Homo sapiens, UniProt P35367); assay: Affinity towards cloned Histamine H1 receptor
[18] = target: Delta-type opioid receptor (Homo sapiens, UniProt P41143); assay: Affinity towards cloned Opioid receptor delta 1
[19] = target: D(3) dopamine receptor (Homo sapiens, UniProt P35462); assay: Affinity towards cloned Dopamine receptor D3
[20] = target: T5, Muscarinic acetylcholine receptor M2 (Homo sapiens, UniProt P08172); assay: Affinity towards cloned Muscarinic acetylcholine receptor M2
T5 sequence (P08172 whole entry): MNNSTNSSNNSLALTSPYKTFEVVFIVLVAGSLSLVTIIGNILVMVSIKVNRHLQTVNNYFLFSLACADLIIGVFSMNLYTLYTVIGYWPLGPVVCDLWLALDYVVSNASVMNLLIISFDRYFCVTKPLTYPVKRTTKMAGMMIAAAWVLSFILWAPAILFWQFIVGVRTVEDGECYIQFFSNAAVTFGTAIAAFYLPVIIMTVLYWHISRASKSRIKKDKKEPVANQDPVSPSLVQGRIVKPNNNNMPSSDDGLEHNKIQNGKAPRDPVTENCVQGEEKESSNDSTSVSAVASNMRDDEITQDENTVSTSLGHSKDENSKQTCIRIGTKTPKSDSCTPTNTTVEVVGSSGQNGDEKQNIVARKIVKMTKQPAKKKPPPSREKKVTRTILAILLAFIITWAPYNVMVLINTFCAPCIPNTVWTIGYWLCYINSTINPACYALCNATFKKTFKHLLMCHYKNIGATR

[21] = target: T6, D(4) dopamine receptor (Homo sapiens, UniProt P21917); assay: Affinity towards cloned Dopamine receptor D4
T6 sequence (P21917 whole entry): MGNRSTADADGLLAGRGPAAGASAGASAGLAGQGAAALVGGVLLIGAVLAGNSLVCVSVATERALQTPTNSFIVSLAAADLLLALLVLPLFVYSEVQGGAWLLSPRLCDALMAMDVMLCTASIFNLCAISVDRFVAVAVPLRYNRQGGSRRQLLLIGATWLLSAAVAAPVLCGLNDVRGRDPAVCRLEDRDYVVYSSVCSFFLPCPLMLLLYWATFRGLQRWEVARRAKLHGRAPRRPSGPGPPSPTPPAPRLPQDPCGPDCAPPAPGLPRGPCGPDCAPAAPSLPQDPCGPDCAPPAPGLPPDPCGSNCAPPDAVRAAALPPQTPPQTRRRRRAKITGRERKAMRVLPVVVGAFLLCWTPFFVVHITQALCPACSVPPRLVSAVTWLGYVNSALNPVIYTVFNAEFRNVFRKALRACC

Sequence of Kappa-type opioid receptor (P41145 whole entry): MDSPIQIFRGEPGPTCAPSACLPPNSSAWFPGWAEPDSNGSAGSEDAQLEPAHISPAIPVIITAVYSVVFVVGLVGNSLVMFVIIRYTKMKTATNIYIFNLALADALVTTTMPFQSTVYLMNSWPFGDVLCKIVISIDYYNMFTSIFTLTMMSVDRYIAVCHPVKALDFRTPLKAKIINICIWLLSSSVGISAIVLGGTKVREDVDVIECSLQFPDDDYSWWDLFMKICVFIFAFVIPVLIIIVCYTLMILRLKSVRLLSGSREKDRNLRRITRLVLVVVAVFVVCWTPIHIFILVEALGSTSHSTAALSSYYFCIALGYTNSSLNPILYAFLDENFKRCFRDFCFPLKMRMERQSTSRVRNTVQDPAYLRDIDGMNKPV
Sequence of 5-hydroxytryptamine receptor 1B (P28222 whole entry): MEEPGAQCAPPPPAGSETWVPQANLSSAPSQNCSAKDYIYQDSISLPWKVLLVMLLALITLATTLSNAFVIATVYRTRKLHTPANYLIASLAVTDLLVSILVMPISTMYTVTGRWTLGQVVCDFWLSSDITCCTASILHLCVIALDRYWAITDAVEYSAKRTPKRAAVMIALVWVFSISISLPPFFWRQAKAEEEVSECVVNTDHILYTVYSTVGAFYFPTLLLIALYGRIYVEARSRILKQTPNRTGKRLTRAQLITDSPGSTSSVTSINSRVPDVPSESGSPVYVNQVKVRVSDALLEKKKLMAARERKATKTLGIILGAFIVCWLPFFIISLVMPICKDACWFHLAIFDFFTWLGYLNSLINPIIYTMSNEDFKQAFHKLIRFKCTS
Sequence of D(3) dopamine receptor (P35462 whole entry): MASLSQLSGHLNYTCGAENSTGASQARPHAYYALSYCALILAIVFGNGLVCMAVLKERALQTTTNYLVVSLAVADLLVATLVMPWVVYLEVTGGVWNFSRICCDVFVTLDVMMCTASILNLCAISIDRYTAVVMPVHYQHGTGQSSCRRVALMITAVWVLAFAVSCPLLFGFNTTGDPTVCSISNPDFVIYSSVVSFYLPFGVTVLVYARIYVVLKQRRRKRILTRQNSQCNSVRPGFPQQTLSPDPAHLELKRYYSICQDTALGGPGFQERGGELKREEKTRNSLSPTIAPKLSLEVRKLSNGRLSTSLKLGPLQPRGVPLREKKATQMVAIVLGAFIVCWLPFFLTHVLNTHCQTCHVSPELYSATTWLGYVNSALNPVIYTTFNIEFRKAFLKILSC
Sequence of 5-hydroxytryptamine receptor 1D (P28221 whole entry): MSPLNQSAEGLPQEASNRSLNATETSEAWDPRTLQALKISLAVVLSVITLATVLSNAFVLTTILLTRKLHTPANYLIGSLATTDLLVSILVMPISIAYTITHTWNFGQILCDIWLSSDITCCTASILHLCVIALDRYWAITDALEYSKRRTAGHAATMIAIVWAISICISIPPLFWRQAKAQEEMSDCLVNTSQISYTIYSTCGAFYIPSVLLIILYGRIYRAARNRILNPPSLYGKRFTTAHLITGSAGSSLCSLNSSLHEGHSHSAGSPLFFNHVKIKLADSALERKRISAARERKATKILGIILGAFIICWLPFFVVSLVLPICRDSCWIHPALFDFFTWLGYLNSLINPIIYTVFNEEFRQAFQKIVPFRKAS
Sequence of Mu-type opioid receptor (P35372 whole entry): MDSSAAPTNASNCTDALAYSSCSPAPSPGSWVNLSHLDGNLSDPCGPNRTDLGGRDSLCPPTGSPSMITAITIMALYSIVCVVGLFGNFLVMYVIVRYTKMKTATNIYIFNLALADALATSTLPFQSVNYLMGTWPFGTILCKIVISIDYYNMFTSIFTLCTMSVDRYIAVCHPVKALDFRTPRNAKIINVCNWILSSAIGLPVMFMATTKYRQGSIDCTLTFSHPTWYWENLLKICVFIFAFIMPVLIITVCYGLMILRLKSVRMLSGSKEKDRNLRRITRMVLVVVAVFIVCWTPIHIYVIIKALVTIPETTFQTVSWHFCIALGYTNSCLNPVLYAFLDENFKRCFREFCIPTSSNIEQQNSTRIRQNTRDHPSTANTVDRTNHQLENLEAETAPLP
Sequence of 5-hydroxytryptamine receptor 7 (P34969 whole entry): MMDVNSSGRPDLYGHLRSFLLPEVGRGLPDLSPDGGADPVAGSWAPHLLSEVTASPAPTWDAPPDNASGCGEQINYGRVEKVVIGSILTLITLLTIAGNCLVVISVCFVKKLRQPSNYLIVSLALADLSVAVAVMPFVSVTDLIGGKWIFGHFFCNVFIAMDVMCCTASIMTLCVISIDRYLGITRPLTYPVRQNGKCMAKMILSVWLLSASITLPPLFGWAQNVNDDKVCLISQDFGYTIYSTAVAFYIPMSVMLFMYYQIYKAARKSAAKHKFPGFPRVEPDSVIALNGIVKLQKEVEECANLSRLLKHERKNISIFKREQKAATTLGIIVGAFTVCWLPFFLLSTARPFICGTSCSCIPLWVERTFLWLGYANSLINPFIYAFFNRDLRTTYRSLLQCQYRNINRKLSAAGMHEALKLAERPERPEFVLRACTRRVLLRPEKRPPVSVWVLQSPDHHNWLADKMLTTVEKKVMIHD
Sequence of D(1B) dopamine receptor (P21918 whole entry): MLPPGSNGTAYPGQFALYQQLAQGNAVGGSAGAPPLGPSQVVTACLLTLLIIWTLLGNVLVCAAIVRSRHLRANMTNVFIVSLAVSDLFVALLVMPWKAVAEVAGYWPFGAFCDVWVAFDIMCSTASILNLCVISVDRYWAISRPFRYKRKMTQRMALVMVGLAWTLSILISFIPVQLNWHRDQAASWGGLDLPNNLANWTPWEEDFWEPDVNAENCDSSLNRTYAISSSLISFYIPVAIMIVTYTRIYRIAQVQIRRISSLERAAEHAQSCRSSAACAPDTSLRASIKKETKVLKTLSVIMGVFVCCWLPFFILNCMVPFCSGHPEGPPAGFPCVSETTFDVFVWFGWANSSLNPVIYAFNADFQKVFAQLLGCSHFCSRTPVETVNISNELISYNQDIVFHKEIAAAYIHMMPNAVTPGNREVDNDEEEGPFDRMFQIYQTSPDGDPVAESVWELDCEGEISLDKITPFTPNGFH
Sequence of 5-hydroxytryptamine receptor 2A (P28223 whole entry): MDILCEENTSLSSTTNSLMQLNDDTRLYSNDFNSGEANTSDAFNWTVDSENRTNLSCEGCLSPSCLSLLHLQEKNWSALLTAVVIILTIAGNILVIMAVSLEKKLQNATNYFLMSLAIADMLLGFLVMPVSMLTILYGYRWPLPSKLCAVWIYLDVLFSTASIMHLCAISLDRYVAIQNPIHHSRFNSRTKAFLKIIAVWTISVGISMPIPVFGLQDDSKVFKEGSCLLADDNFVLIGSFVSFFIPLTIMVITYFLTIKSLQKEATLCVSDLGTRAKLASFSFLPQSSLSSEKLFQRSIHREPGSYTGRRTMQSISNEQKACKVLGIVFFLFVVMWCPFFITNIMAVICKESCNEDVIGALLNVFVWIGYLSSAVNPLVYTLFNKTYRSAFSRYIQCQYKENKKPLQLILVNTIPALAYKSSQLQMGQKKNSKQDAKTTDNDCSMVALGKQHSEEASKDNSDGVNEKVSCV
Sequence of Muscarinic acetylcholine receptor M3 (P20309 whole entry): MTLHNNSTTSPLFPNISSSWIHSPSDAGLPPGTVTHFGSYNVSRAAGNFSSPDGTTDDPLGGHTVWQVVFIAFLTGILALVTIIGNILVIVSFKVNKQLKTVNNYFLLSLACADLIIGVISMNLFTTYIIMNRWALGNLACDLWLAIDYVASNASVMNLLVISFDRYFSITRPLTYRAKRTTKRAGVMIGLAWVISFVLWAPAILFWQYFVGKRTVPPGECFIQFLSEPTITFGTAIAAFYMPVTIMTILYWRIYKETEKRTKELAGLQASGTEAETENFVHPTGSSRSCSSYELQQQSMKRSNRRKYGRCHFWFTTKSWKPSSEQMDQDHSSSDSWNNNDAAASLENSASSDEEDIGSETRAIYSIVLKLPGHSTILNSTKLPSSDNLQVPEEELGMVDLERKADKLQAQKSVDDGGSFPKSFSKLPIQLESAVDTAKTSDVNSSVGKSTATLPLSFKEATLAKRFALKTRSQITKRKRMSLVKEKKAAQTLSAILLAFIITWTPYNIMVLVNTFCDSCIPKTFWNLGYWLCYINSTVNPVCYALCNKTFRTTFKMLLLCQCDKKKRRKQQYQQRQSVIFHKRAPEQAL
Sequence of D(2) dopamine receptor (P14416 whole entry): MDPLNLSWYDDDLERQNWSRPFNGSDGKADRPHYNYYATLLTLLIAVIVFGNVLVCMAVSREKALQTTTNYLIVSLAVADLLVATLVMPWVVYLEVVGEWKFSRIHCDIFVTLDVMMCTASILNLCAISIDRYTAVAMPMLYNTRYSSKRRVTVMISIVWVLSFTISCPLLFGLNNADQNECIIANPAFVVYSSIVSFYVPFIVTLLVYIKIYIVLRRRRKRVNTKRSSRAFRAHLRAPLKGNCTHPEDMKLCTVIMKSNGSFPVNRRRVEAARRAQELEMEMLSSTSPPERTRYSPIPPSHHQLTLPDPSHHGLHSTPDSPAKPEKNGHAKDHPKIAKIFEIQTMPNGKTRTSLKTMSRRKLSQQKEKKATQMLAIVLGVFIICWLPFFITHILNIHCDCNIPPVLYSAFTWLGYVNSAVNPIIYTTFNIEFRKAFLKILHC
Sequence of 5-hydroxytryptamine receptor 6 (P50406 whole entry): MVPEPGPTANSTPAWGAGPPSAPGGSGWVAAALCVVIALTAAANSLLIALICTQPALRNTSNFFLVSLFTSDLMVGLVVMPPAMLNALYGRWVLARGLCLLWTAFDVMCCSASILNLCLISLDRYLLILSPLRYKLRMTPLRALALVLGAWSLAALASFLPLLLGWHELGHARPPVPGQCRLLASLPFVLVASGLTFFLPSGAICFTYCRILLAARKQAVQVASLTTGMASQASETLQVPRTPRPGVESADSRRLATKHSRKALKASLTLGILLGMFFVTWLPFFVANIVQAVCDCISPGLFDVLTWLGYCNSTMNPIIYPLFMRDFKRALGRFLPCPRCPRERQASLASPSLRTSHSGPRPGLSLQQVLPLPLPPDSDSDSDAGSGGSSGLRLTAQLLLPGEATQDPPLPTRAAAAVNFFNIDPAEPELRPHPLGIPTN

Ki [1]: > 10 µM
Ki [2]: > 10 µM
Ki [3]: > 10 µM
Ki [4]: 2.41 µM
Ki [5]: > 10 µM
Ki [6]: > 10 µM
Ki [7]: 6.74 µM
Ki [8]: 0.0124 µM
Ki [9]: > 10 µM
Ki [10]: > 10 µM
Ki [11]: > 10 µM
Ki [12]: > 10 µM
Ki [13]: 1.94 µM
Ki [14]: > 10 µM
Ki [15]: 1.41 µM
Ki [16]: 0.106 µM
Ki [17]: > 10 µM
Ki [18]: > 10 µM
Ki [19]: > 10 µM
Ki [20]: > 10 µM
Ki [21]: > 10 µM
Compound: COc1ccc(NC(=O)N2CCN(c3ccccc3OC)CC2)cc1N1CCN(C)CC1
